Test results reported in US12708632B2 (Jazz Pharmaceuticals Research UK Limited, priority 2020, dated 2026).

Tested on: seizures associated with Cortical Dysplasia and Cortical Brain Malformation
Test: Open label, expanded-access program of botanically derived purified CBD: caregiver-diary seizure frequency
Assay type: in vivo, human patients
Set-up: reduction in atonic seizures over the treatment period / reduction in tonic seizures over the treatment period / reduction in focal seizures without impairment over the treatment period: concentration or dose not given beside the values
Settings: for Seizure frequency: Tonic-clonic: baseline 13.0; for Seizure frequency: Myoclonic: baseline 4.0
Description: Subjects were required to be on one or more AEDs at stable doses for a minimum of two weeks prior to baseline and to have stable vagus nerve stimulation (VNS) settings and ketogenic diet ratios for a minimum of four weeks prior to baseline.
Dose was then increased weekly by 5 mg/kg/day to a goal of 20 to 25 mg/kg/day.
A maximum dose of 50 mg/kg/day could be utilised for patients who were tolerating the medication but had not achieved seizure control; these patients had further weekly titration by 5 mg/kg/day.
Modifications were made to concomitant AEDs as per clinical indication.
Seizure frequency, intensity, and duration were recorded by caregivers in a diary during a baseline period of at least 28 days. Changes in seizure frequency relative to baseline were calculated after at least 2 weeks and at defined timepoints of treatment.
Patients may be defined as responders if they had more than 50% reduction in seizure frequency compared to baseline. the percent change in seizure frequency was calculated as follows: […]
The percent change of seizure frequency may be calculated for any time interval where seizure number has been recorded. For the purpose of this example the percent change of seizure frequency for the end of the treatment period was calculated as follows: […]

Q: `C=C(C)[C@@H]1CCC(C)=C[C@H]1c1c(O)cc(CCCCC)cc1O` [CBD, cannabidiol] was tested. Which “Seizure frequency: Atonic” value (Patient 1, 2 weeks, CBD 10.0 mg/kg/day, baseline 2.0) did it give?
A: 0.0 seizures per week

Q: What about the “Seizure frequency: Tonic-clonic” value (Patient 1, 2 weeks, CBD 10.0 mg/kg/day) of the same compound?
A: 12.0 seizures per week

Q: And the “Seizure frequency: Atonic” value (Patient 1, 4 weeks, CBD 20.0 mg/kg/day, baseline 2.0)?
A: 1.0 seizures per week

Q: What about the “Seizure frequency: Tonic-clonic” value (Patient 1, 4 weeks, CBD 20.0 mg/kg/day) of the same compound?
A: 25.0 seizures per week

Q: What about the “Seizure frequency: Atonic” value (Patient 1, 8 weeks, CBD 25.0 mg/kg/day, baseline 2.0) of the same compound?
A: 3.0 seizures per week

Q: What about the “Seizure frequency: Tonic-clonic” value (Patient 1, 8 weeks, CBD 25.0 mg/kg/day) of the same compound?
A: 17.0 seizures per week

Q: What about the “Seizure frequency: Atonic” value (Patient 1, 12 weeks, CBD 25.0 mg/kg/day, baseline 2.0) of the same compound?
A: 1.0 seizures per week

Q: What about the “Seizure frequency: Tonic-clonic” value (Patient 1, 12 weeks, CBD 25.0 mg/kg/day) of the same compound?
A: 16.0 seizures per week

Q: And the “reduction in atonic seizures over the treatment period” value (Patient 1, treated for 12 weeks, vs baseline)?
A: 50%

Q: And the “Seizure frequency: Tonic” value (Patient 2, 12 weeks, CBD 5.0 mg/kg/day, baseline 140.0)?
A: 70.0 seizures per week

Q: And the “reduction in tonic seizures over the treatment period” value (Patient 2, treated for 12 weeks, vs baseline)?
A: 50%

Q: What about the “Seizure frequency: Myoclonic” value (Patient 3, 4 weeks, CBD 20.0 mg/kg/day) of the same compound?
A: 0.0 seizures per week

Q: And the “Seizure frequency: Tonic” value (Patient 3, 4 weeks, CBD 20.0 mg/kg/day, baseline 20.0)?
A: 4.0 seizures per week

Q: And the “Seizure frequency: Atonic” value (Patient 3, 4 weeks, CBD 20.0 mg/kg/day, baseline 24.0)?
A: 0.0 seizures per week

Q: And the “Seizure frequency: Myoclonic” value (Patient 3, 8 weeks, CBD 25.0 mg/kg/day)?
A: 0.0 seizures per week

Q: And the “Seizure frequency: Tonic” value (Patient 3, 8 weeks, CBD 25.0 mg/kg/day, baseline 20.0)?
A: 200.0 seizures per week

Q: And the “Seizure frequency: Atonic” value (Patient 3, 8 weeks, CBD 25.0 mg/kg/day, baseline 24.0)?
A: 0.0 seizures per week

Q: And the “Seizure frequency: Myoclonic” value (Patient 3, 12 weeks, CBD 14.8 mg/kg/day)?
A: 56.0 seizures per week

Q: What about the “Seizure frequency: Tonic” value (Patient 3, 12 weeks, CBD 14.8 mg/kg/day, baseline 20.0) of the same compound?
A: 140.0 seizures per week

Q: What about the “Seizure frequency: Atonic” value (Patient 3, 12 weeks, CBD 14.8 mg/kg/day, baseline 24.0) of the same compound?
A: 12.0 seizures per week

Q: And the “Seizure frequency: Myoclonic” value (Patient 3, 24 weeks, CBD 9.7 mg/kg/day)?
A: 28.0 seizures per week

Q: What about the “Seizure frequency: Tonic” value (Patient 3, 24 weeks, CBD 9.7 mg/kg/day, baseline 20.0) of the same compound?
A: 140.0 seizures per week

Q: What about the “Seizure frequency: Atonic” value (Patient 3, 24 weeks, CBD 9.7 mg/kg/day, baseline 24.0) of the same compound?
A: 12.0 seizures per week

Q: And the “Seizure frequency: Myoclonic” value (Patient 3, 36 weeks, CBD 10.9 mg/kg/day)?
A: 0.0 seizures per week

Q: And the “Seizure frequency: Tonic” value (Patient 3, 36 weeks, CBD 10.9 mg/kg/day, baseline 20.0)?
A: 60.0 seizures per week

Q: And the “Seizure frequency: Atonic” value (Patient 3, 36 weeks, CBD 10.9 mg/kg/day, baseline 24.0)?
A: 16.0 seizures per week

Q: What about the “Seizure frequency: Myoclonic” value (Patient 3, 48 weeks, CBD 10.6 mg/kg/day) of the same compound?
A: 20.0 seizures per week

Q: What about the “Seizure frequency: Tonic” value (Patient 3, 48 weeks, CBD 10.6 mg/kg/day, baseline 20.0) of the same compound?
A: 40.0 seizures per week

Q: And the “Seizure frequency: Atonic” value (Patient 3, 48 weeks, CBD 10.6 mg/kg/day, baseline 24.0)?
A: 8.0 seizures per week

Q: And the “Seizure frequency: Myoclonic” value (Patient 3, 60 weeks, CBD 17.1 mg/kg/day)?
A: 1.0 seizures per week

Q: And the “Seizure frequency: Tonic” value (Patient 3, 60 weeks, CBD 17.1 mg/kg/day, baseline 20.0)?
A: 28.0 seizures per week

Q: What about the “Seizure frequency: Atonic” value (Patient 3, 60 weeks, CBD 17.1 mg/kg/day, baseline 24.0) of the same compound?
A: 1.0 seizures per week

Q: What about the “Seizure frequency: Myoclonic” value (Patient 3, 72 weeks, CBD 16.2 mg/kg/day) of the same compound?
A: 1.0 seizures per week

Q: And the “Seizure frequency: Tonic” value (Patient 3, 72 weeks, CBD 16.2 mg/kg/day, baseline 20.0)?
A: 40.0 seizures per week

Q: And the “Seizure frequency: Atonic” value (Patient 3, 72 weeks, CBD 16.2 mg/kg/day, baseline 24.0)?
A: 1.0 seizures per week

Q: And the “Seizure frequency: Myoclonic” value (Patient 3, 96 weeks, CBD 24.5 mg/kg/day)?
A: 16.0 seizures per week

Q: And the “Seizure frequency: Tonic” value (Patient 3, 96 weeks, CBD 24.5 mg/kg/day, baseline 20.0)?
A: 28.0 seizures per week

Q: What about the “Seizure frequency: Atonic” value (Patient 3, 96 weeks, CBD 24.5 mg/kg/day, baseline 24.0) of the same compound?
A: 2.0 seizures per week

Q: What about the “Seizure frequency: Myoclonic” value (Patient 3, 120 weeks, CBD 17.7 mg/kg/day) of the same compound?
A: 16.0 seizures per week

Q: What about the “Seizure frequency: Tonic” value (Patient 3, 120 weeks, CBD 17.7 mg/kg/day, baseline 20.0) of the same compound?
A: 6.0 seizures per week

Q: What about the “Seizure frequency: Atonic” value (Patient 3, 120 weeks, CBD 17.7 mg/kg/day, baseline 24.0) of the same compound?
A: 4.0 seizures per week

Q: And the “Seizure frequency: Myoclonic” value (Patient 3, 132 weeks, CBD 17.3 mg/kg/day)?
A: 16.0 seizures per week

Q: What about the “Seizure frequency: Tonic” value (Patient 3, 132 weeks, CBD 17.3 mg/kg/day, baseline 20.0) of the same compound?
A: 6.0 seizures per week

Q: What about the “Seizure frequency: Atonic” value (Patient 3, 132 weeks, CBD 17.3 mg/kg/day, baseline 24.0) of the same compound?
A: 4.0 seizures per week

Q: What about the “Seizure frequency: Myoclonic” value (Patient 3, 144 weeks, CBD 19.9 mg/kg/day) of the same compound?
A: 40.0 seizures per week

Q: And the “Seizure frequency: Tonic” value (Patient 3, 144 weeks, CBD 19.9 mg/kg/day, baseline 20.0)?
A: 56.0 seizures per week

Q: What about the “Seizure frequency: Atonic” value (Patient 3, 144 weeks, CBD 19.9 mg/kg/day, baseline 24.0) of the same compound?
A: 2.0 seizures per week

Q: What about the “reduction in atonic seizures over the treatment period” value (Patient 3, treated for 144 weeks, vs baseline) of the same compound?
A: 91.7%

Q: What about the “Seizure frequency: Tonic” value (Patient 4, 4 weeks, CBD 20.0 mg/kg/day, baseline 196.0) of the same compound?
A: 60.0 seizures per week

Q: What about the “Seizure frequency: Tonic” value (Patient 4, 8 weeks, CBD 25.0 mg/kg/day, baseline 196.0) of the same compound?
A: 40.0 seizures per week

Q: What about the “Seizure frequency: Tonic” value (Patient 4, 12 weeks, CBD 30.0 mg/kg/day, baseline 196.0) of the same compound?
A: 80.0 seizures per week

Q: What about the “Seizure frequency: Tonic” value (Patient 4, 24 weeks, CBD 50.0 mg/kg/day, baseline 196.0) of the same compound?
A: 24.0 seizures per week

Q: And the “Seizure frequency: Tonic” value (Patient 4, 36 weeks, CBD 50.0 mg/kg/day, baseline 196.0)?
A: 32.0 seizures per week

Q: And the “Seizure frequency: Tonic” value (Patient 4, 48 weeks, CBD 50.0 mg/kg/day, baseline 196.0)?
A: 54.0 seizures per week

Q: What about the “Seizure frequency: Tonic” value (Patient 4, 60 weeks, CBD 50.0 mg/kg/day, baseline 196.0) of the same compound?
A: 24.0 seizures per week

Q: And the “Seizure frequency: Tonic” value (Patient 4, 72 weeks, CBD 49.0 mg/kg/day, baseline 196.0)?
A: 24.0 seizures per week

Q: And the “Seizure frequency: Tonic” value (Patient 4, 84 weeks, CBD 46.0 mg/kg/day, baseline 196.0)?
A: 36.0 seizures per week
